US11980594B2, “Composition and method for treating a drug-resistant cancer” (NOVELWISE PHARMACEUTICAL CORPORATION, priority 2021, dated 2024)
Like-named read-outs stand apart in the source and are kept apart here.

What was measured:
P62 and LC3-II = assay: Western blot of autophagy markers in CRC cells; format: cell-based, human; settings: HT29, HCT116 and RKO cells; BMX (5 and 10 μM) with or without 50 μM TMZ; FIG. 18A
Method: Western blot analysis was used to examine the indicated protein expression levels under various concentrations of BMX (0-10 μM), and SAHA, VPA or PCI-34051 in the presence or absence of TMZ (50 μM) or OXP (5 μM) of the tested cell lines. SDS-PAGE and Western blot analysis was performed on lysates prepared as outlined previously. The specific primary antibodies against acetyl-histone H3 (Lys9/Lys14), acetyl-histone H4 (Lys8), P53, acetyl-p53 (Lys382), phospho-p53 (Ser15), P21, P16, MGMT, phosphor-H2AX (S139), E2F1, E2F3, Cleaved Caspase-3, Cleaved Caspase-8, Cleaved Caspase-7, Cleaved Caspase-9, PARP, Bax, Bcl-2, Bid, Bim, Bak, Puma, β-catenin, phospho-β-catenin(Ser/33/37/41), GSK3β, phospho-GSK3β (Ser 9), c-Myc, Cyclin D1, P62, LC3B, CD133, CD44, SOX-2 and HDAC8 were used for detection, and GAPDH, α-tubulin or β-actin was used as the internal control. After incubation with the primary antibodies, and then incubated with horseradish peroxidase (HRP)-conjugated secondary antibodies, the HRP signals were detected with a chemical HRP substrate. Signal of each target protein was visualized by incubation with an enhanced chemiluminescent reagent and exposure to X-ray film.

c-Myc and cyclin D1 = assay: Western blot of c-Myc and cyclin D1 in GBM-R cells; format: cell-based, human; settings: 5 or 10 μM BMX with or without 50 μM TMZ, 48 hrs, FIG. 3B
Method: (§1) The cells were collected and lysed in RIPA lysis buffer (EMD Millipore Billerica, Mass., USA, 10×RIPA buffer) containing a protease inhibitor. Protein concentration was determined using a protein assay kit (Bio-Rad Laboratories, Hercules, Calif., USA). The SDS loading buffer was mixed with the protein samples. Proteins (20 μg/lane) were separated using 8%-12% SDS-PAGE and transferred to a PVDF membrane, which was blocked with 5% bovine serum albumin at room temperature for 1 hr in tris-buffered saline (TBS)-Tween 20 (0.5%; TBS-T), incubated with primary antibodies overnight at […], and then incubated with horseradish peroxidase (HRP)-conjugated secondary antibodies at room temperature for 1 hr. After washing thoroughly with TBS-T, the HRP signals were detected with a chemical HRP substrate. Signal of each target protein was visualized by incubation with an enhanced chemiluminescent reagent and exposure to X-ray film.

HDAC8 = HDAC8 mRNA (qRT-PCR) and protein (Western blot) expression in GBM and GBM-R cell lines; format: cell-based, human; settings: four cell lines (U87MG, U87MG-R, A172, A172-R); BMX 0-10 μM; FIGS. 9A and 9B
Method: The ABI Prism® 7700 Sequence Detection System (Applied Biosystems, Foster City, Calif., USA) was used for quantitative analysis of mRNA expression. The cells (2×10^5) were seeded in 6-well plates, and total RNA was extracted using Tissue Total RNA Mini Kit (Geneaid, Taipei, Taiwan). A 10-ng sample of total RNA was transcribed into cDNA by using a High-Capacity cDNA Reverse Transcription Kit (Applied Biosystems). Gene expression was quantified using Fast SYBR Green Master Mix (Applied Biosystems) following the procedures provided by the manufacturer, with 18s as the inner reference. All procedures were performed according to the manufacturer's protocols. The thermocycling conditions were as follows: 50° C. for 2 min, 95° C. for 10 min, and 40 cycles of 95° C. for 15 s and 60° C. for […]. Each sample was analyzed in triplicate. The threshold cycle (Ct) values were calculated using the StepOnePlus (Applied Biosystems) software. The relative expression of each mRNA was calculated using the 2-(ΔCt) method. […]
The cells were collected and lysed in RIPA lysis buffer (EMD Millipore Billerica, Mass., USA, 10×RIPA buffer) containing a protease inhibitor. Protein concentration was determined using a protein assay kit (Bio-Rad Laboratories, Hercules, Calif., USA). […] After washing thoroughly with TBS-T, the HRP signals were detected with a chemical HRP substrate. […]

HT29 cells = assay: CRC cell proliferation assay (CCK8), HT29; format: cell-based; settings: Homo sapiens
Method: Three CRC cell lines HT29, HCT116 and RKO were used in this study. The American Type Culture Collection (ATCC; Manassas, Va., USA) provided human CRC cell lines HT29 (ATCC HTB-38; mutant TP53, p.R273H; APC frame shift, p. E1554fs; wild type β-catenin), HCT116 (ATCC CCL-247; wild type TP53; wild type APC; deletion β-catenin, p. S45del) and RKO (ATCC CRL-2577; wild type TP53; wild type APC; wild type β-catenin). Three CRC cells lines as listed above were cultured in adherent culture condition, maintained at 37° C. inside the cell incubation containing 5% CO2. The two cell lines of HCT-116 and HT-29 cells were cultured in McCoy's 5A medium with supplemented 10% fetal bovine serum (Gibco; Thermo Fischer Scientific, Grand Island, N.Y., USA)), 1% penicillin and 1% streptomycin. RKO cell was cultured in MEM medium with supplemented 10% FBS, 1% penicillin, 1% streptomycin and 1% sodium pyruvate. The cell cultures were passaged by trypsinization every three days. BM-BMX (BMX), (E)-2-(4-Methoxybenzyloxy)-3-prenyl-4-methoxy-N-hydroxycinamide, was provided by Nature Wise Biotech & Medicals Corporation (Taipei, Taiwan).
We plated 4000 CRC cells per well in 96-well plates and allowed them to adhere overnight. To validate cell line responsiveness to BMX and TMZ monotherapy, the cells were treated with different doses of BMX or TMZ for 24, 48, and 72 hrs. To confirm cell responsiveness to the BMX-TMZ combination, cells were either treated with different doses of TMZ ([…]) with or without BMX (5 μM) for 24, 48, and 72 hrs or with different doses of BMX (0-10 μM) with or without TMZ (50 μM) for 24, 48, and 72 hrs. Following treatment, the absorption value was measured using a CCK8 kit (Targetmol, Shanghai, China) at the indicated time points. The results are reported as the mean±standard deviation of at least three replicates.

β-catenin = assay: Western blot of β-catenin in GBM-R cells; format: cell-based, human; settings: U87R and A172R cells; 10 μM BMX with or without 50 μM TMZ; 48 hrs; FIG. 3A
Method: as §1

RKO cells = assay: Clonogenic (colony formation) assay, RKO; format: cell-based; settings: Homo sapiens, 336 h, 14 days, read-out: IC50 values of TMZ, clonogenic assay
Method: For the anchorage-dependent growth assay, 1000 cells were resuspended in the medium and seeded in 6-well plates. […] After 14 days, the media were removed and the cells were washed and fixed with 4% paraformaldehyde for 30 min, and stained with 0.1% crystal violet for 20 min at 25° C. The intensity of crystal violet was quantified by the absorbance of 570 nm after dissolving the stained cells with dimethyl sulfoxide (DMSO). The results are expressed as the average colony±SE from three independent experiments.

| Compound | expression of P62 and LC3-II (P62 and LC3-II) | levels of proliferative markers c-Myc and cyclin D1 (c-Myc and cyclin D1) | HDAC8 mRNA and protein expression (HDAC8) | IC50 (HT29 cells; HT-29, 24 h, BMX alone, 24 hrs, read-out: IC50 of BMX) | IC50 (HT29 cells; HT-29, 24 h, TMZ 50 μM combined with different concentrations of BMX, 24 hrs, read-out: IC50 of BMZ) | IC50 (HT29 cells; HT-29, 48 h, BMX alone, 48 hrs, read-out: IC50 of BMX) | IC50 (HT29 cells; HT-29, 48 h, TMZ 50 μM combined with different concentrations of BMX, 48 hrs, read-out: IC50 of BMZ) | IC50 (HT29 cells; HT-29, 72 h, BMX alone, 72 hrs, read-out: IC50 of BMX) | IC50 (HT29 cells; HT-29, 72 h, TMZ 50 μM combined with different concentrations of BMX, 72 hrs, read-out: IC50 of BMZ) | protein levels of β-catenin (β-catenin) | IC50 (RKO cells) | IC50 (HT29 cells; HT-29, 24 h, BMX 5 μM combined with different doses of TMZ, 24 hrs, read-out: IC50 of TMZ) | IC50 (HT29 cells; HT-29, 24 h, TMZ alone, 24 hrs, read-out: IC50 of TMZ) | IC50 (HT29 cells; HT-29, 48 h, BMX 5 μM combined with different doses of TMZ, 48 hrs, read-out: IC50 of TMZ) | IC50 (HT29 cells; HT-29, 48 h, TMZ alone, 48 hrs, read-out: IC50 of TMZ) | IC50 (HT29 cells; HT-29, 72 h, TMZ alone, 72 hrs, read-out: IC50 of TMZ) |
| --- | --- | --- | --- | --- | --- | --- | --- | --- | --- | --- | --- | --- | --- | --- | --- | --- |
| COc1ccc(COc2c(/C=C/C(=O)NO)ccc(OC)c2CC=C(C)C)cc1 [BMX, (E)-2-(4-Methoxybenzyloxy)-3-prenyl-4-methoxy-N-hydroxycinamide] | concentration-dependent increase in the expression of P62 and LC3-II | could decrease their levels | inhibition of HDAC8 mRNA and protein expression | 42.6 ± 2.4 µM | > 10 µM | 9.9 ± 0.5 µM | 9.1 ± 0.2 µM | 2.9 ± 0.2 µM | 2.2 ± 0.1 µM | only slightly reduced these levels |  |  |  |  |  |  |
| Cn1nnc2c(C(N)=O)ncn2c1=O [TMZ, Temozolomide, reference compound] |  |  |  |  |  |  |  |  |  |  | 244 ± 29.4 µM | > 400 µM | > 1000 µM | 128 ± 18.3 µM | 931 ± 47.7 µM | 258 ± 20.5 µM |
